Laboratory results reported in patent publication US6624202B2, “Inhibitors of copper-containing amine oxidases” (priority 2000, dated 2003).
Where a name gives a salt, the structure may show the parent alone. Read-outs that look alike come from different tables or passages of the source.

Legend:
[1] = target: T1, Recombinant human VAP-1 SSAO (Homo sapiens, UniProt Q16853); assay: In vitro inhibition of VAP-1 SSAO activity (coupled colourimetric method); assay type: biochemical; details: for IC50: 1 mM benzylamine, 1 h at 37° C.; for Selectivity for VAP-1 SSAO over MAO: ratio of total rat MAO IC50 to human VAP-1 SSAO IC50
T1 sequence (Q16853 1-763): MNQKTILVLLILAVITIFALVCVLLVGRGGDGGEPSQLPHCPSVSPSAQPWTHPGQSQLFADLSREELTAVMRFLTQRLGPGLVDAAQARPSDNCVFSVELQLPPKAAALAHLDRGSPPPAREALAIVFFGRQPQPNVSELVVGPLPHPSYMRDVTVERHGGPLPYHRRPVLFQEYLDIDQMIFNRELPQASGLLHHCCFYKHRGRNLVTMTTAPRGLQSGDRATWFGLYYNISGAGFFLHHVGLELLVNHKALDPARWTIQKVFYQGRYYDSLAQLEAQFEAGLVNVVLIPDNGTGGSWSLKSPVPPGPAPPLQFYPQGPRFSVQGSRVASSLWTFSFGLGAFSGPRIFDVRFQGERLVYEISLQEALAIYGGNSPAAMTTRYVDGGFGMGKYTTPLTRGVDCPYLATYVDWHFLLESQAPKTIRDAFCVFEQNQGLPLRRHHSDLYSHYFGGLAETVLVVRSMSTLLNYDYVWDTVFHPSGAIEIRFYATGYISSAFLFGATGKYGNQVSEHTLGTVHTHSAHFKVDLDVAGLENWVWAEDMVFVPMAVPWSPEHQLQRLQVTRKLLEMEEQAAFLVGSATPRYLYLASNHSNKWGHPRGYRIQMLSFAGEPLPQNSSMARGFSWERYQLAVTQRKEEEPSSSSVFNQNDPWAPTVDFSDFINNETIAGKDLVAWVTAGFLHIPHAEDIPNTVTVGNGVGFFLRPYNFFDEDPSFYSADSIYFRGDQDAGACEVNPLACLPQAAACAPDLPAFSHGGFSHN
Procedure: VAP-1 SSAO activity was measured using the coupled colourimetric method essentially as described for monoamine oxidase and related enzymes (Holt, A., et al., Anal. Biochem. 244:384-392 (1997)). Recombinant human VAP-1 SSAO expressed in Chinese Hamster Ovary (CHO) cells was used as a source of VAP-1 SSAO for activity measurements. […] These cells and their culture have previously been described (Smith, D. J., et al., J. Exp. Med. 188:17-27 (1998)). A cell lysate was prepared by suspending approximately 3.6×10^8 cells in 25 ml lysis buffer (150 mM NaCl, 10 mM Tris-Base pH 7.2, 1.5 mM MgCl2, 1% NP40) and incubating at 4° C. overnight on a rotating table. The lysate was clarified by centrifugation at 18000 g for 5 min at room temperature and the supernatant used directly in the assay. The VAP-1 SSAO assay was performed in 96 well microtitre plates as follows. To each well was added a predetermined amount of inhibitor if required. […] Controls lacked inhibitor. The inhibitor was in a total volume of 20 μl in water. The following reagents were then added. 0.2 M potassium phosphate buffer pH 7.6 to a total reaction volume of 200 μl, 45 μl of freshly made chromogenic solution containing 1 mM 2,4-dichlorophenol, 500 μM 4-aminoantipyrine and 4 U/ml horseradish peroxidase and an amount of CHO cell lysate containing VAP-1 SSAO that caused a change of 0.6 A490 per h. […] The plates were incubated for 30 min at 37° C. and the background absorbance measured at 490 nm using a Wallac Victor II multilabel counter. To initiate the enzyme reaction 20 μl 10 mM benzylamine (final concentration=1 mM) was added and the plate incubated for 1 h at 37° C. The increase in absorbance, reflecting VAP-1 SSAO activity, was measured at 490 nm. Inhibition was presented as percent inhibition compared to control after correcting for background absorbance and IC50 values calculated using GraphPad Prism.

[2] = lysate of CHO cells expressing recombinant human VAP-1 SSAO, read-out: VAP-1 SSAO inhibitory activity IC50

SMILES | melting point [°C] | IC50 ([1]; VAP-1 SSAO inhibitory activity IC50, lysate of CHO cells expressing recombinant human VAP-1 SSAO) [nM] | Selectivity for VAP-1 SSAO over MAO [1] | IC50 [1, 2] [nM]
C[C@@H]([C@H](O)c1ccccc1)N(C)N (as salt: maleate) [Compound 1, (1R,2S)-2-(1-Methylhydrazino)-1-phenyl-1-propanol hydrogenmaleate] | 111 to 113 | – | – | –
C[C@H](C(O)c1ccccc1)N(C)N (single isomer, unassigned) [Compound 48] | 112 to 114 | 280 | 110 | –
NNCC(O)c1ccccc1 (single isomer, unassigned) [Compound 49] | 99 to 104 | – | 70 | 140
NNCC(O)c1ccccc1 (single isomer, unassigned) [Compound 50] | 98 to 103 | – | 283 | 35
